For one molecule, inhibition results are on record in ChEMBL document CHEMBL4043168, “The design and SAR of a novel series of 2-aminopyridine based LRRK2 inhibitors” (Bioorg Med Chem Lett, 2017).

Structures are written as SMILES.

The target in assay [1] is Dual specificity mitogen-activated protein kinase kinase 2 (Homo sapiens) (UniProt P36507). The assay can be described thus: Inhibition of MAP2K2 conserved Lys2 (IMHRDVKPSNILVNSR) in human PBMC at 0.1 uM.
For assay [2], the target named is G protein-coupled receptor kinase 6 (Homo sapiens) (UniProt P43250). As to the kind of experiment: Inhibition of GPRK6 conserved Lys2 (DLKPENILLDDHGHIR) in human PBMC at 1 uM.
Assay [3] has as its target T1, Serine/threonine-protein kinase LATS1 (Homo sapiens) (UniProt O95835).
T1 sequence (whole entry): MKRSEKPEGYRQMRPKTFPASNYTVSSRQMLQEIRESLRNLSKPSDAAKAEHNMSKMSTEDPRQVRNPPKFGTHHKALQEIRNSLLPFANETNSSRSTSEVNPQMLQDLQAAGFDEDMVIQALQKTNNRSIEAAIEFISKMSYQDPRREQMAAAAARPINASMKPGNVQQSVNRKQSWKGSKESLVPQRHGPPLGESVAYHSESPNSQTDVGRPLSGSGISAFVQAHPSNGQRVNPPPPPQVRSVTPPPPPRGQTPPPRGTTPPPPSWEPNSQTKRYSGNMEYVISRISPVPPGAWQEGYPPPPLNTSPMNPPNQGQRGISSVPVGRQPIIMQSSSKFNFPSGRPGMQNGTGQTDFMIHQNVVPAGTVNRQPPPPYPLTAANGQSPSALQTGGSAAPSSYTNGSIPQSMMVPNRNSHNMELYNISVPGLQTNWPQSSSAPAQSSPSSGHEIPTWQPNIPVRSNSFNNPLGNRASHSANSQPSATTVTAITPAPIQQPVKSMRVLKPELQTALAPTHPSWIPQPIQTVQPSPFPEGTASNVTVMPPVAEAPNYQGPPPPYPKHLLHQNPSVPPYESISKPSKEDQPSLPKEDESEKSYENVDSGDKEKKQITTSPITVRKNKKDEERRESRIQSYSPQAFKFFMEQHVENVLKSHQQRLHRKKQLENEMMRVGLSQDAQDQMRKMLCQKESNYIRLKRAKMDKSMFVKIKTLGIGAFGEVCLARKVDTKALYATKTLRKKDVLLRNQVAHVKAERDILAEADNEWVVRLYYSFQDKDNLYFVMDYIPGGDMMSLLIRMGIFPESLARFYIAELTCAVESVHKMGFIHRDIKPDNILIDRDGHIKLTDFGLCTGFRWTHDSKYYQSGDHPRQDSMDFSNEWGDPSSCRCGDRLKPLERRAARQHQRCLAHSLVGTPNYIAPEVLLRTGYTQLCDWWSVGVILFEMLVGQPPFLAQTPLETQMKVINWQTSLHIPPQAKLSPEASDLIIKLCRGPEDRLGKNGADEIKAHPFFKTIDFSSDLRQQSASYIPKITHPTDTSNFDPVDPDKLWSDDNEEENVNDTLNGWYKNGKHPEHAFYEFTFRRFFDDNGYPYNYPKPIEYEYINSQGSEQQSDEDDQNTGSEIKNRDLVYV
As to the kind of experiment: Inhibition of LATS1 conserved Lys2 (DIKPDNILIDR) in human PBMC at 1 uM.

Assay [4] concerns the target Tyrosine-protein kinase BTK (Homo sapiens) (UniProt Q06187). The assay can be described thus: Inhibition of BTK labeling at activation Loop (YVLDDEYTSSVGSKFPVR) in human PBMC at 1 uM.
Assay [5] has as its target Mitogen-activated protein kinase 10 (Homo sapiens) (UniProt P53779). The assay can be described thus: Inhibition of JNK3 conserved Lys2 (DLKPSNIVVK) in human PBMC at 0.1 uM.
A further assay is filed under the species Homo sapiens. The assay can be described thus: Inhibition of p70S6K conserved Lys2 (DLKPENIMLNHQGHVK) in human PBMC at 1 uM.
For assay [6], the target named is Calcium/calmodulin-dependent protein kinase type II subunit beta (Homo sapiens) (UniProt Q13554). As to the kind of experiment: Inhibition of CaMK2b labeling at conserved Lys2 (DLKPENLLLASK) in human PBMC at 1 uM.
In assay [7] the target is Mitogen-activated protein kinase kinase kinase 1 (Homo sapiens) (UniProt Q13233). The assay can be described thus: Inhibition of MAP3K1 conserved Lys2 (DVKGANLLIDSTGQR) in human PBMC at 0.1 uM.
Assay [8] has as its target Serine/threonine-protein kinase Nek8 (Homo sapiens) (UniProt Q86SG6). The assay can be described thus: Inhibition of NEK8 conserved Lys2 (DLKTQNILLDK) in human PBMC at 0.1 uM.
Assay [9] has as its target Ribosomal protein S6 kinase alpha-5 (Homo sapiens) (UniProt O75582). The assay can be described thus: Inhibition of MSK1 domain1 conserved Lys2 (DIKLENILLDSNGHVVLTDFGLSK) in human PBMC at 1 uM.
Assay [10] deals with Serine/threonine-protein kinase WNK1 (Homo sapiens) (UniProt Q9H4A3). The assay can be described thus: Inhibition of Wnk1 ATP binding site (GSFKTVYK) in human PBMC at 0.1 uM.
The target in assay [11] is 5'-AMP-activated protein kinase catalytic subunit alpha-2 (Homo sapiens) (UniProt P54646). As to the kind of experiment: Inhibition of AMPKa2 labeling at conserved Lys2 (DLKPENVLLDAHMNAK) in human PBMC at 1 uM.
In assay [12] the target is Tyrosine-protein kinase HCK (Homo sapiens) (UniProt P08631). The assay can be described thus: Inhibition of HCK activation Loop (EGAKFPIKWTAPEAINFGSFTIK) in human PBMC at 0.1 uM.
Assay [13] concerns the target Phosphatidylinositol 3-kinase catalytic subunit type 3 (Homo sapiens) (UniProt Q8NEB9). The assay can be described thus: Inhibition of PIK3C3 ATP binding site (TEDGGKYPVIFKHGDDLR) in human PBMC at 1 uM.
Assay [14] addresses Serine/threonine-protein kinase Nek7 (Homo sapiens) (UniProt Q8TDX7). As to the kind of experiment: Inhibition of NEK7 conserved Lys1 (AACLLDGVPVALKK) in human PBMC at 0.1 uM.
Assay [15] addresses Mitogen-activated protein kinase kinase kinase 4 (Homo sapiens) (UniProt Q9Y6R4). As to the kind of experiment: Inhibition of MAP3K4 conserved Lys2 (DIKGANIFLTSSGLIK) in human PBMC at 0.1 uM.
The target of assay [16] is Mitogen-activated protein kinase 13 (Homo sapiens) (UniProt O15264). The assay can be described thus: Inhibition of p38d conserved Lys2 (DLKPGNLAVNEDCELK) in human PBMC at 1 uM.

Sequence of Ribosomal protein S6 kinase alpha-5 (Homo sapiens) (O75582 whole entry, looked up, the tested form may be a part): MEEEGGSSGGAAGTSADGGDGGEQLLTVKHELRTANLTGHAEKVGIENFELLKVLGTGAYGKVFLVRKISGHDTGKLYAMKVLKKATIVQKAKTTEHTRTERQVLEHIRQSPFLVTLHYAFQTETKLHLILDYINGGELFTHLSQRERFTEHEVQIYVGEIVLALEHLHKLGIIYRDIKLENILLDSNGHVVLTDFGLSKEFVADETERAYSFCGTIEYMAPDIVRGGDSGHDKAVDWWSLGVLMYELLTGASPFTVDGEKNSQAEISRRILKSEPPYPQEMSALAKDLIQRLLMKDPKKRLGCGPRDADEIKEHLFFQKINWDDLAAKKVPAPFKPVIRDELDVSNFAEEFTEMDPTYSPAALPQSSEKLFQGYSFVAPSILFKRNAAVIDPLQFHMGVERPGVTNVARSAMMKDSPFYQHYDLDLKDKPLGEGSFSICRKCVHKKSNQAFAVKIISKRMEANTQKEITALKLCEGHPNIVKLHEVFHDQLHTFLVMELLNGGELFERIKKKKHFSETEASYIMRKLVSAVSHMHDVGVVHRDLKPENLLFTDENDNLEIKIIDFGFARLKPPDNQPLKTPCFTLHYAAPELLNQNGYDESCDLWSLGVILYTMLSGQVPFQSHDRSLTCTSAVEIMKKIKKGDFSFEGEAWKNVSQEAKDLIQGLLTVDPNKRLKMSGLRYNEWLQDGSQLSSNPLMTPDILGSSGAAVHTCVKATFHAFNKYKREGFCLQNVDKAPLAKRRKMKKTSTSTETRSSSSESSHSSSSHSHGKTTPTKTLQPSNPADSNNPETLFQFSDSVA
Sequence of Mitogen-activated protein kinase kinase kinase 4 (Homo sapiens) (Q9Y6R4 whole entry): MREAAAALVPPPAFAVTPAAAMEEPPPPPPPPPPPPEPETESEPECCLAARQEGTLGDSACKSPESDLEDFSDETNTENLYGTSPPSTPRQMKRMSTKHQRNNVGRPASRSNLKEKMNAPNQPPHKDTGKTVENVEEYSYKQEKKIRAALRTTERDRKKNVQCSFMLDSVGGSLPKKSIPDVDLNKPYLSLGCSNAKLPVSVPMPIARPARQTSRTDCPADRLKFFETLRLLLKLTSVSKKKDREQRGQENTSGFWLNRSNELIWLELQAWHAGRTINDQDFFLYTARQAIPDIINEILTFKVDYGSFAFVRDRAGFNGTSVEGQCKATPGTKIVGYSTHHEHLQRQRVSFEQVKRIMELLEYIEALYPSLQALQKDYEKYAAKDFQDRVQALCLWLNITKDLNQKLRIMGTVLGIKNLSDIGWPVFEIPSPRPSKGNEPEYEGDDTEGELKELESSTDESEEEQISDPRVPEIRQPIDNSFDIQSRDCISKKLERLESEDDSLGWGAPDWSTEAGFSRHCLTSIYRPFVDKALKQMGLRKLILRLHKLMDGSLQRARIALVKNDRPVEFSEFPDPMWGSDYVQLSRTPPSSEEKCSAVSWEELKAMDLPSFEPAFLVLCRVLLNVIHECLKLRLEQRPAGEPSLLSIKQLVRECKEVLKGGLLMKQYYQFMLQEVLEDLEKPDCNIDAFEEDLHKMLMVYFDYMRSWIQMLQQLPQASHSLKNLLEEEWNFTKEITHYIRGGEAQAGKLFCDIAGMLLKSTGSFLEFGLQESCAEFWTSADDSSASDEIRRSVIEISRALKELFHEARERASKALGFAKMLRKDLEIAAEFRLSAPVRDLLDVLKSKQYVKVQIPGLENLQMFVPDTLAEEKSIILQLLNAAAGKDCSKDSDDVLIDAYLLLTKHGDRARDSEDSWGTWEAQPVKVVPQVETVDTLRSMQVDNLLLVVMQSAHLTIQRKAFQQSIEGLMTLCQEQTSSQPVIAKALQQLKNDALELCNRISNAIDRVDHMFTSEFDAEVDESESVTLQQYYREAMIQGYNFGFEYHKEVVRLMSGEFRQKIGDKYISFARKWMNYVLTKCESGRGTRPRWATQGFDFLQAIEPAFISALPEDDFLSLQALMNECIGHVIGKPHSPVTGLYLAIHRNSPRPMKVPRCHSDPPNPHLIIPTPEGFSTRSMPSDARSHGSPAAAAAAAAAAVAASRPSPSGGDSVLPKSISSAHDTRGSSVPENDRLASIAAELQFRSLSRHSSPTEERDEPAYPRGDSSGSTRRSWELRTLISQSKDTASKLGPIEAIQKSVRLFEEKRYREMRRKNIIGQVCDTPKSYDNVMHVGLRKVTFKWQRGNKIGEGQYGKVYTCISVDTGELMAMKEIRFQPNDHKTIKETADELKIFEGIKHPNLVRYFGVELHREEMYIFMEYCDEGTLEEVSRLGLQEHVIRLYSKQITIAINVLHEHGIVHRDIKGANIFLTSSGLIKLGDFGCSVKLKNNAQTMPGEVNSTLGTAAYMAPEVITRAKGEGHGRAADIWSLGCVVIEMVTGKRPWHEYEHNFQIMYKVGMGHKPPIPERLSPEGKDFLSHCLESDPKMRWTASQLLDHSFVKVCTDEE
Sequence of Serine/threonine-protein kinase Nek8 (Homo sapiens) (Q86SG6 whole entry, the tested form may be a part): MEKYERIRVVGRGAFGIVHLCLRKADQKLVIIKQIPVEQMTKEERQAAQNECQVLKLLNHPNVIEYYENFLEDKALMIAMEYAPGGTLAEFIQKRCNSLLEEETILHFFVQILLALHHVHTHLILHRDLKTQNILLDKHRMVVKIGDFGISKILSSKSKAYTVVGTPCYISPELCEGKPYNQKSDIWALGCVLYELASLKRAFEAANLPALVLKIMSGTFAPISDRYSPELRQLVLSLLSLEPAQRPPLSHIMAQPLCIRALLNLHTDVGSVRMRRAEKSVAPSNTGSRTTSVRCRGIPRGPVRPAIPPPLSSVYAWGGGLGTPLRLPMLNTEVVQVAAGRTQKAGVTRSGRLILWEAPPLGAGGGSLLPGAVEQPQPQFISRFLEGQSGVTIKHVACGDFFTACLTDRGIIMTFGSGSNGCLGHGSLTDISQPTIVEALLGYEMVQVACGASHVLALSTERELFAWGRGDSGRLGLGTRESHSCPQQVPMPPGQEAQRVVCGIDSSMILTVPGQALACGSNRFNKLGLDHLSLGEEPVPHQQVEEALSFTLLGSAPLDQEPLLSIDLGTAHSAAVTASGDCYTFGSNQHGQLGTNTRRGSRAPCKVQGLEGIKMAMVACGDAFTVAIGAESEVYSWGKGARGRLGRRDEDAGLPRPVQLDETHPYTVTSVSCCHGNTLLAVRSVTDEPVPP
Sequence of Calcium/calmodulin-dependent protein kinase type II subunit beta (Homo sapiens) (Q13554 whole entry): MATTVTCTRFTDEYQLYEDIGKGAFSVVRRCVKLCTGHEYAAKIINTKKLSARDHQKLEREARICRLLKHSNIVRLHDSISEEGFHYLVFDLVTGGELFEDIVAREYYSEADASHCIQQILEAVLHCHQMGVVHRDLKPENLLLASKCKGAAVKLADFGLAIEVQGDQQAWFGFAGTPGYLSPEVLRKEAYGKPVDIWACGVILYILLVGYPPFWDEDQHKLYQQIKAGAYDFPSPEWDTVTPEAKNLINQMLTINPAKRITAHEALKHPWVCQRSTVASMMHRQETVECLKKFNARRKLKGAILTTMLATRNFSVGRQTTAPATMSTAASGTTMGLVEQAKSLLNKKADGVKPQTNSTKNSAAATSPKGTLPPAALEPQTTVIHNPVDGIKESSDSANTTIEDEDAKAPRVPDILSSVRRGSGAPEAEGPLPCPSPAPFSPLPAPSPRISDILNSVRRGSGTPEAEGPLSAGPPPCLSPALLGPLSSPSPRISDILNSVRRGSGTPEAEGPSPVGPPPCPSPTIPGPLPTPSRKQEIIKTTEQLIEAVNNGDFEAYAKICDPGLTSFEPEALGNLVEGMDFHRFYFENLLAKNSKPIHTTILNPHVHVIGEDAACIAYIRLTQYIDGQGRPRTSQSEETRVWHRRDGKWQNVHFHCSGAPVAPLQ
Sequence of 5'-AMP-activated protein kinase catalytic subunit alpha-2 (Homo sapiens) (P54646 whole entry, looked up): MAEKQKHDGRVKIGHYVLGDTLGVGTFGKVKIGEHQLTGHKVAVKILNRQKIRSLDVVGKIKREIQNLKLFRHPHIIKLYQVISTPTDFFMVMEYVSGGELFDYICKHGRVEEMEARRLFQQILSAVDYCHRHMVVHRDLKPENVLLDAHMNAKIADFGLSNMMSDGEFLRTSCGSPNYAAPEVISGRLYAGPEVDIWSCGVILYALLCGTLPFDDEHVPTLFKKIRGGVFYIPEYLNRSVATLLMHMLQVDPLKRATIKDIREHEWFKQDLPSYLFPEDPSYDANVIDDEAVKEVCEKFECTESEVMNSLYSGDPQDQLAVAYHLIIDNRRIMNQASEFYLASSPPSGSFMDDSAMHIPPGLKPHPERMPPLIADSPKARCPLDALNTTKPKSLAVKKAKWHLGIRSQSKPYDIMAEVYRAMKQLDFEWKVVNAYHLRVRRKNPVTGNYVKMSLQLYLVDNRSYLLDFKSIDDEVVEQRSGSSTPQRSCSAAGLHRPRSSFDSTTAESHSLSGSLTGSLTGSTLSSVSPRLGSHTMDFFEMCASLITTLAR
Sequence of Tyrosine-protein kinase HCK (Homo sapiens) (P08631 2-526 limits assumed): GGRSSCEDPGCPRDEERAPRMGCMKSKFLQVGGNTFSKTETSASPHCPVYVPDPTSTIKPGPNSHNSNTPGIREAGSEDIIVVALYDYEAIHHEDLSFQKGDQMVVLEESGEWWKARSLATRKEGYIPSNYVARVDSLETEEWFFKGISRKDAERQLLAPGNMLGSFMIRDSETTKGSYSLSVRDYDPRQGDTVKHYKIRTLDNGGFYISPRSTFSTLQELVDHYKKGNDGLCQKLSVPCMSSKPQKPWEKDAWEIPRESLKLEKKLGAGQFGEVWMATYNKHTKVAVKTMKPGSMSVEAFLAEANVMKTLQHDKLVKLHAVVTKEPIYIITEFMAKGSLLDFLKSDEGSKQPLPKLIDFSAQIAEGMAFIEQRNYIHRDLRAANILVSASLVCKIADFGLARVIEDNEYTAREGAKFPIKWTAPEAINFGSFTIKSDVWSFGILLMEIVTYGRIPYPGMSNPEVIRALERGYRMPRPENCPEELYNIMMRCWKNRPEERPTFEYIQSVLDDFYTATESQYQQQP

The term inhibition denotes the relative decrease from the control value, in per cent. In the case of `CC(C)n1cc(-c2cc(-c3ccc(CN4CCOCC4)cc3)cnc2N)nn1`, the inhibition is -5.6% in assay [1]; -10% in [2]; 30.9% in assay [3]; 17.4% in assay [4]; 25.1% in [5]; 6.9% in the assay filed under Homo sapiens. For the same molecule, the inhibition was -0.4% in [6]; 29.6% in [7]; 0.2% in assay [8]; 9.8% in assay [9]; 18.3% in assay [10]; 17.5% in [11]. Also, the inhibition in assay [12] was -7.4%; in [13] it was 2.8%; in assay [14] it was 7.6%; in [15] it was 3.8%; in assay [16], 14%.
